Laboratory results reported in ChEMBL document CHEMBL1132871, “Antimycobacterial activity of ionic fullerene derivatives” (Bioorg Med Chem Lett, 2000).

Tested on: Mycobacterium tuberculosis
Test: The compound was tested for its ability to inhibit the growth of Mycobacterium tuberculosis strain H6/99; Resistant
Format: functional, organism-based

| Compound | MIC |
| --- | --- |
| NNC(=O)c1ccncc1 | Resistant |
| CO[C@H]1/C=C/O[C@@]2(C)Oc3c(C)c(O)c4c(O)c(c(/C=N/N5CCN(C)CC5)c(O)c4c3C2=O)NC(=O)/C(C)=C\C=C\[C@H](C)[C@H](O)[C@@H](C)[C@@H](O)[C@@H](C)[C@H](OC(C)=O)[C@@H]1C | Resistant |
